Values of other authors as cited in paper PMC6270655, “Mixed Antimony(V) Complexes with Different Sugars to Modulate the Oral Bioavailability of Pentavalent Antimonial Drugs” (Molecules, 2014).

Design: method as in PMID 22573856

half-life: ~ 150 h
SMILES: CCCCCCCCCCCCCCCCOP(=O)([O-])OCC[N+](C)(C)C [miltefosine, hexadecylphosphocholine]
